Molecular target: M. tuberculosis GpgS (glucosyl-3-phosphoglycerate synthase) (Mycobacterium tuberculosis, UniProt P9WMW9)
Sequence (P9WMW9 whole entry): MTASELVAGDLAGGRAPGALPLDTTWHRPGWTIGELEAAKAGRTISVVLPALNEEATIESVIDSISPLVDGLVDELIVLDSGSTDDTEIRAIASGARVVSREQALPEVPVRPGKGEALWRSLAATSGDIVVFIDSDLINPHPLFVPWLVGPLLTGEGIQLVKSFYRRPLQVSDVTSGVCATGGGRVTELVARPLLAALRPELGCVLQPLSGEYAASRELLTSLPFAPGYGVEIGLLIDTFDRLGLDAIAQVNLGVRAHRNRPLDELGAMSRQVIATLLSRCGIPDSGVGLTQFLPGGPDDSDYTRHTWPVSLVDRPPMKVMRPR

**Q.** How did the “X-ray crystal structure of ternary complex, 2.7 A (co-crystallization)” value turn out when `O=C(O)[C@H](O)COP(=O)(O)O` [3-phosphoglycerate] was run?
**A.** there is clear electron density for the carboxylate region of the bound 3-phosphoglycerate
